Experimental data as given in paper PMC4961458 (eLife, 2016).
Where two headings read alike, the source gives them in different places.

How the values were obtained:
WHIM20 tumors = format: in vivo, mice; conditions: no E2 pellets; GDC-0810 100 mg/kg/day; tamoxifen 60 mg/kg/day; fulvestrant 50 mg/kg days 1, 3 and 7, 25 mg/kg weekly thereafter; 35 days
From the text: Figure 8. […] (B) Gene expression analysis of WHIM20 tumors after 4 days of dosing, harvested 8 hr after the final dose. […] (E) WHIM20 tumors were implanted in mice without supplemental 17β-estradiol pellets.
The WHIM20 patient derived xenograft model (WHIM20) was established via direct implantation of metastatic tumor material into immune compromised mice at Washington University in St. Louis ([Li et al., 2013]).
Tumors were established from fragments obtained from Washington University by subcutaneous implantation via 10G trocar into the right flank of 6–7 week old female NOD.CB17-Prkdc^scid/NcrCrl mice (Charles River Laboratories) and NOD.Cg-Prkdc^scid Il2rg^tm1Wjl/SzJ mice (Jackson Laboratories). Tumor line was propagated by serial transplantation. Animals were ovariectomized prior to initiation of treatment.

MCF7 ER.WT cells = assay: Cell viability, MCF7 ER.WT cells (7 days); format: cell-based; conditions: Homo sapiens; for EC50: absence of estrogen; for IC50: presence of estrogen (0.1 nM), read-out: Cell viability IC50, ER.WT +E2
uterus of juvenile rats = assay: Juvenile rat uterus assays; format: in vivo, Sprague Dawley rats; conditions: for Uterine wet weight: tamoxifen 60 mg/kg orally once a day for 3 days, GDC-0810 0.1 or 10 mg/kg, relative to vehicle control; for Uterine wet weight / Endometrial epithelial cell morphology (histology, endometrial cell height): fulvestrant 50 mg/kg; for Endometrial epithelial cell morphology (histology, endometrial cell height): tamoxifen 60 mg/kg, GDC-0810 0.1 and 10 mg/kg
From the text: […] Rats were euthanized 4 hr after the final dose. Uteri were then dissected, weighed and fixed for histological examination. A small portion of tissue was saved prior to fixation for mRNA isolation and gene expression analysis.
H&E stained sections from bilateral representative uterine horn cross-sections were examined from two animals treated with the compounds shown. Endometrial cell height was digitally measured from the basement membrane to the apical (luminal) surface (orange line), using a digitally scanned image at 20X magnification. Obliquely cut areas were avoided. Three digital measurements were taken from each section (n = 6).
Estrogen receptor was detected using the mouse monoclonal anti-ER (clone 1D5, Dako), incubated for 60 min at RT at a dilution of 0.5 µg/ml, and visualized after secondary rabbit anti-mouse antibody binding with Powervision DAB (Leica Powersystems). H-scores were estimated manually, incorporating both intensity and percentage of positive nuclei, using the following formula: (0 x% negative)+(1 x% weak)+(2 x% moderate)+(3 x% strong)

[1] = system: Ishikawa endometrial cells; assay: Alkaline phosphatase activity in Ishikawa endometrial cells; format: cell-based, human; conditions: absence of estrogen
MCF7 cells = assay: MCF7 cell viability assay (CellTiter-Glo); format: cell-based, human; conditions: for IC50 / EC50: Homo sapiens; for EC50: absence of exogenous estradiol, Figure 1E, read-out: MCF7 cell viability EC50 (-E2)
PR-A = molecular target: T1, PR-A (Homo sapiens, UniProt P06401); assay: PR-A transcriptional reporter assay, agonist mode (HEPG2 cells); format: cell-based; parameters: subcloning full-length PRa into pCMX; expressed in transfected cells; host or cells: HEPG2; conditions: % of maximal R5020-stimulated activity
T1 sequence (P06401 1-769 isoform P06401-2): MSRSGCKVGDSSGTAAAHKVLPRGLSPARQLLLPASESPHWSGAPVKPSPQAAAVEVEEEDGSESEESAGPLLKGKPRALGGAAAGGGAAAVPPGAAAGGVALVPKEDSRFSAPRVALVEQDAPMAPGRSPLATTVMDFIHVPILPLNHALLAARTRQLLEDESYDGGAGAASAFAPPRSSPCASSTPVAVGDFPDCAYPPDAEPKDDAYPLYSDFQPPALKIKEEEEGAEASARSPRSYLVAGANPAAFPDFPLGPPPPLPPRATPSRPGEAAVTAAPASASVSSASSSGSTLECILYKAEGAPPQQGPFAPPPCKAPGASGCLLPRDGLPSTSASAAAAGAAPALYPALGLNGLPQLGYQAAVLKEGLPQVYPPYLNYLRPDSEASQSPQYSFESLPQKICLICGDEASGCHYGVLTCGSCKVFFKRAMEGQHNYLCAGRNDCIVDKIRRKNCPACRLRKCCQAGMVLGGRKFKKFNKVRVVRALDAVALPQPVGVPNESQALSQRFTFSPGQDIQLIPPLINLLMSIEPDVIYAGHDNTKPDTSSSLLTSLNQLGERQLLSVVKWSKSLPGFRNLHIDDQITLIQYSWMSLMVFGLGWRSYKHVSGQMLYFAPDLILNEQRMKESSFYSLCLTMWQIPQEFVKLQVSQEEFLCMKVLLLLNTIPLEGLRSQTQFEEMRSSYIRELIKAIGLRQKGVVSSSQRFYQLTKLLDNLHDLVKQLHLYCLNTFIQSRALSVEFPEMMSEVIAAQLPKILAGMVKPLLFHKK
Description: Transcriptional assays were performed by seeding 100 μL of cells at a density of 250,000 cells/mL into 96-well cell culture plates in RPMI 1640 supplemented with 5% charcoal-stripped serum and allowed to attach overnight. […] Triplicate transfections were performed using 418 ng reporter vector (2X PRE-Luciferase for PR-A and PR-B, MMTV-Luciferase for MR), 50 ng CMVpRL (normalization vector), 10 ng NHR expression vector (CMX-PR-A, pCDNA-PR-B or 6R-MR), and 0.7 μL lipofectin. […] The final agonist concentration used in the antagonist assays was 1 nM. Following 24 hr incubation, the medium was removed and the cells were lysed in 40 μL of lysis buffer (25 mM Tris Phosphate, 2 mM CDTA, 10% Glycerol, 0.5% Triton X-100, 2 mM DTT). Firefly luciferase activity was measured immediately following the addition of 40 μL luciferase buffer (20 mM tricine, 0.1 mM EDTA, 1.07 mM (MgCO3)4 Mg(OH)2· 5H2O, 2.67 mM MgSO4, 33.3 mM DTT, 270 μM Coenzyme A, 470 μM luciferin, 530 μM ATP).

[2] = MCF7, 168 h, 7 days, read-out: Cell viability EC50, ER.WT -E2
[3] = 120 h, MCF7, 5 d incubation, read-out: Cell viability CellTiter-Glo IC50
[4] = MCF7, 120 h, read-out: MCF7 cell viability IC50 (+ 0.1nM E2), presence of 0.1 nM estradiol, 5 day, Figure 1F

Compound	Tumor growth response, WHIM20 PDX (WHIM20 tumors)	EC50 (MCF7 ER.WT cells; [2]) [nM]	IC50 (MCF7 ER.WT cells; MCF7, 168 h, 7 days) [nM]	ER levels in the uterus (IHC) (uterus of juvenile rats)	Uterine wet weight (uterus of juvenile rats)	Endometrial epithelial cell morphology (histology, endometrial cell height) (uterus of juvenile rats)	Alkaline phosphatase activity [1]	IC50 (MCF7 cells; [3]) [nM]	IC50 (MCF7 cells; [4]) [nM]	EC50 (MCF7 cells; MCF7, 120 h, 5 day) [nM]	Cell viability CellTiter-Glo Emax (MCF7 cells; MCF7, 5 d incubation) [% E2]	EC50 (MCF7 ER.WT cells; MCF7, Figure 6—figure supplement 1D, read-out: Cell viability EC50, ER.WT (-E2)) [nM]	Emax (PR-A) [%]
C[C@]12CC[C@@H]3c4ccc(O)cc4C[C@@H](CCCCCCCCC[S+]([O-])CCCC(F)(F)C(F)(F)F)[C@H]3[C@@H]1CC[C@@H]2O (some centres unmarked) [Fulvestrant]	tumor growth inhibition	1.1	23	robustly depletes ER	significant decrease in uterine weight	remained cuboidal	shows no such effect	0.56 ± 0.7	9	0.5	25.4 ± 3.7		
CC/C(=C(/c1ccc(/C=C/C(=O)O)cc1)c1ccc2[nH]ncc2c1)c1ccc(F)cc1Cl [GDC-0810]	induced tumor stasis	1	28	only modestly reduces ER levels	did not significantly alter uterine wet	induced a cuboidal to columnar morphological change	modestly increases alkaline phosphatase activity	2.5 ± 2.1	25	1	24.6 ± 3.3	0.7	6.68 ± 7.97
CC/C(=C(\c1ccc(O)cc1)c1ccc(OCCN(C)C)cc1)c1ccccc1 [4-OH Tam, 4-hydroxytamoxifen]		3.2	19				robustly increases alkaline phosphatase activity	0.53 ± 0.25	30	3.9	48.0 ± 4.7		0.04 ± 0.06
